Experimental data reported in ChEMBL document CHEMBL5303573, “Mapping human microbiome drug metabolism by gut bacteria and their genes” (Nature, 2019).

Legend:
[1] = The drug is tested on Bacteroides vulgatus strain: ATCC8482 for biotransformation. The drug concentrations were measured before and after a 12-h incubation by liquid-chromatography-coupled mass spectrometry (LC–MS); conditions: phocaeicola vulgatus, 2 µM
[2] = enterocloster bolteae, 12 h, 2 µM
Description: The drug is tested on Clostridium bolteae strain: ATCCBAA-613 for biotransformation. The drug concentrations were measured before and after a 12-h incubation by liquid-chromatography-coupled mass spectrometry (LC–MS)

[3] = The drug is tested on Bacteroides pectinophilus strain: ATCC43243 for biotransformation. The drug concentrations were measured before and after a 12-h incubation by liquid-chromatography-coupled mass spectrometry (LC–MS); conditions: 2 µM
[4] = segatella copri, 12 h, 2 µM
Description: The drug is tested on Prevotella copri strain: DSM18205 for biotransformation. The drug concentrations were measured before and after a 12-h incubation by liquid-chromatography-coupled mass spectrometry (LC–MS)

[5] = bacteroides thetaiotaomicron, 12 h, 2 µM
Description: The drug is tested on Bacteroides thetaiotaomicron strain: VPI-5482 for biotransformation. The drug concentrations were measured before and after a 12-h incubation by liquid-chromatography-coupled mass spectrometry (LC–MS)

[6] = The drug is tested on Bacteroides dorei strain: DSM17855 for biotransformation. The drug concentrations were measured before and after a 12-h incubation by liquid-chromatography-coupled mass spectrometry (LC–MS); conditions: phocaeicola dorei, 2 µM
[7] = The drug is tested on Eubacterium rectale strain: ATCC33656 for biotransformation. The drug concentrations were measured before and after a 12-h incubation by liquid-chromatography-coupled mass spectrometry (LC–MS); conditions: agathobacter rectalis, 2 µM
[8] = The drug is tested on Bacteroides sp. WH2 strain: WH2 for biotransformation. The drug concentrations were measured before and after a 12-h incubation by liquid-chromatography-coupled mass spectrometry (LC–MS); conditions: bacteroides sp. wh2, 12 h, 2 µM
[9] = The drug is tested on Eubacterium hallii strain: DSM3353 for biotransformation. The drug concentrations were measured before and after a 12-h incubation by liquid-chromatography-coupled mass spectrometry (LC–MS); conditions: anaerobutyricum hallii, 2 µM
[10] = The drug is tested on Blautia luti strain: DSM14534 for biotransformation. The drug concentrations were measured before and after a 12-h incubation by liquid-chromatography-coupled mass spectrometry (LC–MS); format: ADME; design: dose 2 uM, timepoint 0 vs 12 hours; conditions: 2 µM
[11] = bacteroides eggerthii, 12 h, 2 µM
Description: The drug is tested on Bacteroides eggerthii strain: DSM20697 for biotransformation. The drug concentrations were measured before and after a 12-h incubation by liquid-chromatography-coupled mass spectrometry (LC–MS)

[12] = The drug is tested on Odoribacter splanchnicus strain: fecal isolate for biotransformation. The drug concentrations were measured before and after a 12-h incubation by liquid-chromatography-coupled mass spectrometry (LC–MS); conditions: 2 µM
[13] = The drug is tested on Bacteroides ovatus strain: ATCC8483 for biotransformation. The drug concentrations were measured before and after a 12-h incubation by liquid-chromatography-coupled mass spectrometry (LC–MS); conditions: 2 µM
[14] = The drug is tested on Bifidobacterium ruminantium strain: fecal isolate for biotransformation. The drug concentrations were measured before and after a 12-h incubation by liquid-chromatography-coupled mass spectrometry (LC–MS); conditions: 2 µM
[15] = The drug is tested on Bacteroides finegoldii strain: DSM17565 for biotransformation. The drug concentrations were measured before and after a 12-h incubation by liquid-chromatography-coupled mass spectrometry (LC–MS); conditions: 2 µM
[16] = The drug is tested on Providencia stuartii strain: ATCC25827 for biotransformation. The drug concentrations were measured before and after a 12-h incubation by liquid-chromatography-coupled mass spectrometry (LC–MS); conditions: 2 µM
[17] = The drug is tested on Clostridium asparagiforme strain: DSM15981 for biotransformation. The drug concentrations were measured before and after a 12-h incubation by liquid-chromatography-coupled mass spectrometry (LC–MS); format: ADME; design: dose 2 uM, timepoint 0 vs 12 hours; conditions: enterocloster asparagiformis, 2 µM
[18] = The drug is tested on Enterobacter cancerogenus strain: ATCC35316 for biotransformation. The drug concentrations were measured before and after a 12-h incubation by liquid-chromatography-coupled mass spectrometry (LC–MS); conditions: 2 µM
[19] = bacteroides stercoris, 12 h, 2 µM
Description: The drug is tested on Bacteroides stercoris strain: ATCC43183 for biotransformation. The drug concentrations were measured before and after a 12-h incubation by liquid-chromatography-coupled mass spectrometry (LC–MS)

[20] = The drug is tested on Ruminococcus torques strain: ATCC27756 for biotransformation. The drug concentrations were measured before and after a 12-h incubation by liquid-chromatography-coupled mass spectrometry (LC–MS); format: ADME; design: dose 2 uM, timepoint 0 vs 12 hours; conditions: 2 µM

Measured: Bacterial Biotransformation

COc1ccccc1OCC(O)CN1CCN(CC(=O)Nc2c(C)cccc2C)CC1 (stereo unspecified) [RANOLAZINE]
Compound NOT metabolized: [1] | [2] | [3] | [4] | [5] | [6] | [7] | [8] | [9] | [10] | [11] | [12] | [13] | [14] | [15] | [16] | [17] | [18] | [19] | [20]

CCCCCCOC(=O)/N=C(/N)c1ccc(NCc2nc3cc(C(=O)N(CCC(=O)OCC)c4ccccn4)ccc3n2C)cc1.CS(=O)(=O)O [DABIGATRAN ETEXILATE MESYLATE]
Compound NOT metabolized: [1] | [2] | [3] | [4] | [5] | [6] | [7] | [8] | [9] | [10] | [11] | [12] | [13] | [14] | [15] | [16] | [17] | [18] | [19]

COc1ccc(C(CN(C)C)C2(O)CCCCC2)cc1 (stereo unspecified) [VENLAFAXINE]
Compound NOT metabolized: [1] | [2] | [3] | [4] | [5] | [6] | [7] | [8] | [9] | [10] | [11] | [12] | [13] | [14] | [15] | [16] | [17] | [18] | [19] | [20]

CCC(COC(=O)c1cc(OC)c(OC)c(OC)c1)(c1ccccc1)N(C)C.O=C(O)/C=C\C(=O)O (stereo unspecified)
Compound NOT metabolized: [1] | [11] | [16]
Compound metabolized: [2] | [3] | [4] | [5] | [6] | [7] | [8] | [9] | [10] | [12] | [13] | [14] | [15] | [17] | [18] | [19] | [20]

O=c1[nH]c2ccccc2n1C1CCN(CCCC(c2ccc(F)cc2)c2ccc(F)cc2)CC1 [PIMOZIDE]
Compound NOT metabolized: [1] | [2] | [3] | [4] | [5] | [6] | [7] | [8] | [9] | [10] | [11] | [12] | [13] | [14] | [15] | [16] | [17] | [18] | [19] | [20]

CCCCC1=NC2(CCCC2)C(=O)N1Cc1ccc(-c2ccccc2-c2nnn[nH]2)cc1 [IRBESARTAN]
Compound NOT metabolized: [7] | [10]
Compound metabolized: [1] | [2] | [3] | [4] | [5] | [6] | [8] | [9] | [12] | [13] | [14] | [15] | [16] | [17] | [18] | [19] | [20]

CN1[C@@H]2CC[C@H]1C[C@@H](OC(=O)c1c[nH]c3ccccc13)C2 [TROPISETRON]
Compound NOT metabolized: [1] | [2] | [3] | [4] | [5] | [6] | [7] | [8] | [9] | [10] | [11] | [12] | [13] | [14] | [15] | [16] | [17] | [18] | [19] | [20]

C#C[C@]1(OC(C)=O)CC[C@H]2[C@@H]3CCC4=C[C@@H](OC(C)=O)CC[C@@H]4[C@H]3CC[C@@]21C [ETHYNODIOL DIACETATE]
Compound NOT metabolized: [1] | [2] | [3] | [4] | [5] | [6] | [7] | [8] | [11] | [12] | [13] | [14] | [15] | [16] | [17] | [18] | [19] | [20]
